Series [1] can be described thus: Cytotoxicity MTT assay, NIH3T3. It is filed as cell-based, mouse. To be noted: mouse, NIH3T3 fibroblasts; NIH3T3, Table 5. As for the experimental part:
(§1) Cytotoxicity Assay. Cytotoxicity was assessed by 3-(4,5-dimethylthiazol-2-yl)-2,5-diphenyltetrazolium bromide (MTT) assay as previously described.^41, 54 Briefly, cells were seeded in 96-well microtiter plates and allowed to attach. Cells were subsequently treated with a continuous exposure to the corresponding drug for 72 hours. An MTT solution (at a final concentration of 0.5 mg/mL) was added to each well and cells were incubated for 4 hours at 37° C. After removal of the medium, DMSO was added and the absorbance was read at 570 nm. All assays were done in triplicate. The IC50 was then determined for each drug from a plot of log (drug concentration) versus percentage of cell kill.
(§2) Cytotoxicity of Selected Compounds in a Panel of Cancer Cell lines. Initially, we tested all compounds in two breast cancer cell lines MDA-MB-435 and MCF7 with high and low αvβ3 expression as well as in HEY ovarian cancer cell line naturally resistant to cisplatin. […] We observed a remarkable specificity for some of the compounds against these cells. […] Considering the fact that αvβ3 mediates migration, attachment and apoptosis of cancer cells, the combination of these novel high affinity antagonists with conventional cytotoxic drugs should show improved therapeutic benefits without additional toxicity.
(§3) NVX-188 was tested for cytotoxicity by MTT assays in two breast cancer cell lines, MDA-MB-435 with high αvβ3 integrin expression and MCF7 with low αvβ3 integrin expression, and an ovarian cancer cell line, HEY, which was used to test for cell growth inhibition evidence. NVX-188 was further evaluated in a lung cancer cell line, NCI-H1975, and a mouse fibroblast, NIH3T3. NVX-188 was not cytotoxic at the highest dose level tested (20 uM).

Series [2] can be described thus: Cytotoxicity MTT assay, HEY. To be noted: human, HEY ovarian carcinoma cells; HEY, Table 5. The class given is cell-based, human.
Excerpt: (§4) Cell Culture. Human breast cancer cells (MCF-7, αvβ3—, overexpressed wild-type p53, ER+; MDA-MB 468, p53 mutant, ER+; and MDA-MB-435, αvβ3+, p53 mutant, ER−) and non-small cell lung cancer cells H1975 were obtained from the American Type Cell Culture (Rockville, Md. Q4). The HEY human ovarian carcinoma cell line naturally resistant to cisplatin (CDDP) was kindly provided by Dr. Dubeau (University of Southern California Norris Cancer Center). Cells were maintained as monolayer cultures in RPMI 1640 supplemented with 10% fetal bovine serum (Gemini-Bioproducts, Woodland, Calif.) and 2 mmol/L L-glutamine at 37° C. in a humidified atmosphere of 5% CO2. To remove the adherent cells from the flask for passaging and counting, cells were washed with PBS without calcium or magnesium, incubated with a small volume of 0.25% trypsin-EDTA solution (Sigma, St. Louis, Mo.) for 5 to 10 minutes, and washed with culture medium and centrifuged. All experiments were done using cells in exponential cell growth.
as §1, §2, §3

For series [3], the system named is HEY ovarian cancer cell line. Put plainly: Cytotoxicity MTT assay, HEY. The class given is cell-based, human. To be noted: for inhibition at 20 µM: Homo sapiens, HEY, 72 h MTT, read-out: % inhibition of cell growth at 20 μM, HEY.
Excerpt: as §4, §1, §2, §3

Series [4] concerns MCF7 breast cancer cell line. Put plainly: Cytotoxicity MTT assay, MCF7. The conditions noted are these: for inhibition at 20 µM: Homo sapiens, MCF7, 72 h MTT, read-out: % inhibition of cell growth at 20 μM, MCF7. It is filed as cell-based, human.
Excerpt: as §4, §1, §2, §3

Series [5] in a line: Cytotoxicity MTT assay, MCF7. The class given is cell-based, human. The conditions noted are these: human, MCF-7 breast cancer cells; MCF-7, Table 5.
Excerpt: as §4, §1, §2, §3

The nature of series [6]: Cytotoxicity MTT assay, NCI-H1975. The class given is cell-based, human. To be noted: human, NCI-H1975 non-small cell lung cancer cells; NCI-H1975, Table 5.
Excerpt: as §4, §1, §2, §3

Series [7] has as its system MDA-MB-435 breast cancer cell line. Put plainly: Cytotoxicity MTT assay, MDA-MB-435. It is filed as cell-based, human. The conditions noted are these: for inhibition at 20 µM: Homo sapiens, MDA-MB-435, 72 h MTT, read-out: % inhibition of cell growth at 20 μM, 435.
Excerpt: as §4, §1, §2, §3

Series [8] can be described thus: Cytotoxicity MTT assay, MDA-MB-435. It is filed as cell-based, human. The conditions noted are these: human, MDA-MB-435 breast cancer cells; MDA-MB-435, Table 5.
Excerpt: as §4, §1, §2, §3

The test system of series [9] is panel of cancer cell lines. Put plainly: Cytotoxicity MTT assay, statements on the whole panel of cell lines. To be noted: for specificity of cytotoxicity among the cell lines (in words): five cell lines of Table 5; for cytotoxicity (in words): MTT, panel of cell lines, highest dose tested 20 uM. The class given is cell-based. How it is done:
as §1, §2, §3

The target in the next series is T1, αvβ3 integrin (Homo sapiens, UniProt P05106+P06756).
T1 construct: endogenous in cells; host or cells: NCI-H1975 cells (non-small cell lung cancer), whole cells in suspension
Put plainly: Receptor binding assay, competitive binding with 125I-labeled echistatin on the surface of NCI-H1975 cells. The conditions noted are these: for IC50 / αvβ3 binding affinity (in words): 125I-echistatin competition, NCI-H1975 cells; for fold higher affinity than the parent compound AV26: ratio of αvβ3 binding IC50 to AV26. How it is done: Receptor Binding Assay. […] 96-Well multiscreen DV plate (filter pore size: 0.65 μm, Millipore, Billerica, Mass.) was incubated with ^125I-echistatin (50,000 cpm/well) in the presence of increasing concentrations of αvβ3 antagonists. The total incubation volume was adjusted to 200 μL. After the cells were incubated for 3 h at room temperature, the plate was filtered through multiscreen vacuum manifold and washed twice with cold binding buffer. The hydrophilic PVDF filters were collected, and the radioactivity was determined using NaI(Tl) gamma counter (Packard, Meriden, Conn.). The best-fit IC50 values were calculated by fitting the data by nonlinear regression using GraphPad Prism (GraphPad Software, Inc., San Diego, Calif.). Experiments were carried out with triplicate samples.
αvβ3 Binding. Receptor binding affinity of all compounds on the surface of non-small cell lung cancer NCI-H1975 cells was determined in competitive binding experiments using ^125I-labeled echistatin as radioligand and the results are presented in Table 3. […] These compounds represent a novel set of antagonists with diverse structural scaffolds. […] This is an important feature considering the highly electrostatic nature of the RGD peptide binding region of αvβ3. The RGD peptide forms strong electrostatic interactions through its two charged ends with αvβ3 in the αvβ3-cyclic RGD peptide complex crystal structure. Compounds AV3, AV27, and AV32 broadly fall into a RGD mimetic antagonist category, since they have a carboxylate group or amine/amide group, at either ends that can establish similar electrostatic interactions with αvβ3. Additionally, presence of several hydrophilic functional groups on these compounds favors their interaction with the highly electrostatic region of the RGD binding site of αvβ3. Given these interesting structural features, we tested additional structurally close analogues of AV27 and AV32. However, substructure search queries using the core scaffolds of these compounds in our in-house databases yield no close analogues. Structure-activity studies around the core scaffolds of these two compounds might be an alternative option to further optimize their binding affinity towards αvβ3. […] We carried out a limited structure-activity relationship (SAR) analysis on compound AV26 by testing compounds AV34-AV38 in our binding assay (Table 3). The substructure search using the core scaffold of AV26 as a search query retrieved few compounds from our in-house database of 359,224 compounds. The analogues AV34-AV38 were purchased from Chemical Diversity (San Diego, Calif.) and screened for their αvβ3 binding affinity. […] Studies are also underway to selectively deliver cytotoxic agents such as paclitaxel to αvβ3 overexpressing cancers through covalent conjugation.
Receptor binding affinity of NVX-188 was determined through a competitive binding experiment using ^125I-radiolabeled echistatin on NCI-H1975 cells. Increasing concentrations of NVX-188 were added with a fixed amount of echistatin to determine the concentration of NVX-188 that prevents 50% of the echistatin from binding to αvβ3 integrin on the cell surface (i.e., IC50).

In the next series the test system is NIH3T3 mouse fibroblast. Put plainly: Cytotoxicity MTT assay, NIH3T3. To be noted: Table B. It is filed as cell-based. How it is done: as §1, §2, §3
Series [10] concerns NCI-H1975 lung cancer cell-line. Put plainly: Cytotoxicity MTT assay, NCI-H1975. It is filed as cell-based, human. The conditions noted are these: Table B.
Excerpt: as §4, §1, §2, §3

[11] abbreviates: read-out: αvβ3 binding affinity (IC50).

The values below come from patent US7928113B2, “Integrin-binding small molecules” (University of Southern California, priority 2005, dated 2011).

Molecules are shown by their SMILES. Read-outs that look alike come from different tables or passages of the source.

Take `O=C(O)c1cccc(-c2ccc(/C=N/Nc3nc4nonc4nc3Nc3ccc(F)cc3)o2)c1` [AV30]: the IC50 at 72 h in series [1] is 13 ± 3 µM; in series [2], 7 ± 0.42 µM; in [5], 19 ± 4 µM; in series [6], above 20 µM; in series [8], 8 ± 0.5 µM. Besides, the inhibition at 20 µM in series [3] came to 90%; in series [4], 52%; in series [7], 71%. The “specificity of cytotoxicity among the cell lines (in words)” value in series [9] is “a profile very similar in MDA-MB-435, HEY, and NIH3T3 cells, but was significantly less active against MCF-7 and NCI-H1975 cells”.

On to `CN(C)c1ccc(/C=C2\SC(=Nc3ccc(O)cc3)NC2=O)cc1` [AV34], for which the IC50 at 72 h was above 20 µM in series [2], above 20 µM in [5] and 2.8 ± 0.01 µM in [8]. Further, the inhibition at 20 µM was 25% in series [3], 31% in series [4] and 65% in series [7]. In addition, in series [9], the “specificity of cytotoxicity among the cell lines (in words)” value is given as “A similar trend, but smaller magnitude”.

As for `CCOc1ccc(/N=C2/S/C(=C\c3ccc(N(C)C)cc3)C(=O)N2CC)cc1` [AV35], the IC50 at 72 h in series [1], in series [2], in series [5], in [6] and in series [8] was above 20 µM in each case. Moreover, the inhibition at 20 µM in series [3] is 17%; in [4] it was 36%; in series [7] it was 26%. The IC50 at αvβ3 integrin (setting [11]) stood at 24000 pM. At αvβ3 integrin, the “fold higher affinity than the parent compound AV26” value worked out at 10 fold.

`Cc1ccc(NC(=O)CN2C(=O)N/C(=C\c3cccn3-c3cccc(C(=O)O)c3)C2=O)cc1` [AV27]: the concentration for half-maximal inhibition (IC50) at 72 h in [1], in series [2], in [5], in series [6] and in [8] was above 20 µM throughout. The inhibition at 20 µM came out at 5% in [3], 0% in series [4] and 0% in series [7]. Also, the IC50 at αvβ3 integrin (setting [11]) was determined as 18000 pM.

With `CS(=O)(=O)Nc1ccc(C2=NN(C(=O)CCCC(=O)O)C(c3ccco3)C2)cc1` (centres unmarked) [AV32], the IC50 at 72 h in [1], in series [2], in series [5], in series [6] and in series [8] was above 20 µM each time. Also, the inhibition at 20 µM in [3] was 18%; in [4], 26%; in series [7], 0%. Moreover, the IC50 on αvβ3 integrin (setting [11]) turned out to be 605000 pM.

For `CCOc1cc(/C=C2\S/C(=N/c3ccc(C(=O)O)cc3)N(C)C2=O)ccc1O` [AV26], the IC50 at 72 h in [1] is above 20 µM; in series [2], 13 ± 8 µM; in series [5], above 20 µM; in [6] it was above 20 µM; in series [8] it was 0.34 ± 0.06 µM. Moreover, the values for the inhibition at 20 µM in series [3], in [4] and in series [7] were 51%, 37% and 94%, respectively. For the same compound, the IC50 on αvβ3 integrin (setting [11]) turned out to be 240000 pM. Besides, the “fold selectivity for MDA-MB-435 cells as compared to the HEY cells” value in series [7] (cytotoxicity IC50 ratio) is given as around 40 fold. The “fold selectivity for MDA-MB-435 cells as compared to the MCF7, NIH3T3, and CRL5908 cells” value in [7] (cytotoxicity IC50 ratio) is listed as “more than 60 fold”. Besides, in series [9], the “cytotoxicity (in words)” value is listed as “considerable cytotoxicity in a breast cancer cell line”.

For `Nc1nc(O)c2nc(CCCNc3ccc(C(=O)NC(CCC(=O)O)C(=O)O)cc3)cnc2n1` (centres unmarked) [AV3], the IC50 at 72 h in series [1], in [2], in [5], in series [6] and in series [8] was above 20 µM throughout. In addition, the inhibition at 20 µM in series [3], in series [4] and in [7] was 0% each time. The IC50 at αvβ3 integrin (setting [11]) worked out at 52000 pM.

`COc1cc(Cl)c(/C=C2\S/C(=N/c3cccc(C(=O)O)c3)N(C)C2=O)cc1OC` [AV38]: the IC50 at 72 h in series [1], in series [2], in [5], in series [6] and in series [8] was above 20 µM in each case. Also, the IC50 with NIH3T3 mouse fibroblast was above 20 µM; in series [3] (Table B), above 20 µM; on αvβ3 integrin (same value restated in pM, read-out: αvβ3 integrin binding affinity (IC50)) it was 30 pM; in series [4] (Table B), above 20 µM; in series [10], above 20 µM; in series [7] (Table B), above 20 µM. The results for the inhibition at 20 µM in series [3], in [4] and in [7] were 0%, 18% and 0%, respectively. In addition, the “αvβ3 binding affinity (in words)” value is “high-affinity binding characteristics at picomolar concentrations” on αvβ3 integrin and “active at picomolar concentrations” on αvβ3 integrin (listed as NVX-188). Also, the “fold higher affinity than the parent compound AV26” value on αvβ3 integrin was 800 fold. Moreover, in [9], the “cytotoxicity (in words)” value is on record as “not cytotoxic”.
